One assay has as its target T1, human GPR61 R140A (Homo sapiens, UniProt Q9BZJ8, R140A).
T1 construct: expressed in transfected cells; host or cells: CHO-K1, transient (Fugene6)
Description: Functional cAMP assay (HTRF), transiently transfected CHO-K1 cells, GPR61 R140A mutant. The class given is cell-based. The text has this: (§1) The human GPR61 (reference sequence NM_031936.4) cDNA was synthesized and subcloned into pcDNA5/FRT/TO (Thermo Fisher, Pittsburgh, PA). The pcDNA5/FRT/TO/ human GPR61 plasmid was then transfected into the Flp-In™-CHO Cell Line (Thermo Fisher, Pittsburgh, PA) and a doxycycline-inducible clonal cell line was selected (CHO TREx hGPR61 WT). Sequences encoding untagged and HiBit/hemagglutinin (HA)-tagged versions of the wild-type human GPR61 were synthesized and cloned into pcDNA3.1. The HiBit ([…]) and HA ([…]) tags were sequentially included after the N-terminal initiator methionine. Four single amino acid substitutions (N137A, R140A, V288A, N345A) were then introduced in the untagged and tagged human GPR61 constructs using site-specific mutagenesis. The nucleotide sequences of all receptor constructs were confirmed by automated DNA sequencing.
Parental CHO-K1 cells were maintained at 37 °C in a humidified environment (5% CO2) and grown in Dulbecco’s Modified Eagle Medium (DMEM) F-12 media (Gibco, 11320033) supplemented with 10% FBS, 1% Glutamax (Gibco, 35050061) and 100units/ml penicillin and streptomycin (Gibco, 15140122. Cells were dissociated using a cell dissociation solution (Gibco, 13151-014), counted, and resuspended in complete culture media without antibiotics. Cells were then transiently transfected using Fugene6 (Promega) in a 384-well plate format (Corning, 3570). For each well, 7500 cells were transfected with 5 ng of receptor plasmid, 20 ng of carrier DNA (Promega, PAE4881) and 0.075 μl Fugene6 in a final volume of 25 μl. […] Surface and total receptor expression was measured separately by adding 25 μl per well of the extracellular (Promega, PRN2421) and lytic (Promega, PRN3040) assay solutions, respectively. Plates were incubated for 10 min at room temperature on a shaker and luciferase activity was measured using an EnVision plate reader (Perkin Elmer, Chicago, IL). […]
(§2) A homogeneous Time-Resolved Fluorescence (HTRF) assay (Perkin Elmer, Dynamic2 kit #) was used to assess receptor basal and inverse agonist activity at human GPR61, GPR62, and GPR101. […]

Another assay concerns the target Human PED9A1 (Homo sapiens, UniProt O76083). Description: Phosphodiesterase Assay (SPA). In kind it is biochemical.
In a further assay the target is T2, human GPR61 V288A (Homo sapiens, UniProt Q9BZJ8, V288A).
T2 construct: expressed in transfected cells; host or cells: CHO-K1, transient (Fugene6)
Description: Functional cAMP assay (HTRF), transiently transfected CHO-K1 cells, GPR61 V288A mutant. The class given is cell-based. The following applies: for IC50: Fig. 3e table.
Text: as §1
Parental CHO-K1 cells were maintained at 37 °C in a humidified environment (5% CO2) and grown in Dulbecco’s Modified Eagle Medium (DMEM) F-12 media (Gibco, 11320033) supplemented with 10% FBS, 1% Glutamax (Gibco, 35050061) and 100units/ml penicillin and streptomycin (Gibco, 15140122. Cells were dissociated using a cell dissociation solution (Gibco, 13151-014), counted, and resuspended in complete culture media without antibiotics. Cells were then transiently transfected using Fugene6 (Promega) in a 384-well plate format (Corning, 3570). For each well, 7500 cells were transfected with 5 ng of receptor plasmid, 20 ng of carrier DNA (Promega, PAE4881) and 0.075 μl Fugene6 in a final volume of 25 μl. Fugene6 and DNA were separately diluted in Optimem media (Gibco, 31985070) (1.25 μl final volume each). Fugene6 and DNA solutions were then combined and incubated for 15 min at room temperature. The cell containing solution (22.5 μl) was then added and transfection reactions were mixed and transferred to the assay plate. Following 24 h incubation at 37 °C, wells were rinsed once and 25 μl of HiBit assay buffer (Phenol-red free DMEM F-12 media containing 2% FBS) was added per well. Surface and total receptor expression was measured separately by adding 25 μl per well of the extracellular (Promega, PRN2421) and lytic (Promega, PRN3040) assay solutions, respectively. Plates were incubated for 10 min at room temperature on a shaker and luciferase activity was measured using an EnVision plate reader (Perkin Elmer, Chicago, IL). Expression was normalized as percent of the wild-type receptor signal. Statistical comparisons of expression levels observed with WT versus GPR61 mutants were made by one-way analysis of variance with Dunnett’s post hoc test.
as §2
Background: Cyclic AMP is a second messenger, typically raised through Gs and lowered through Gi signalling.

Where “and” joins values, the source holds several entries; their conditions need not be identical. Equal values may be shown once. Read-outs that look alike come from different tables or passages of the source. Bounds are passed on as bounds.

Broadly, the IC50 is the midpoint of a concentration-inhibition curve.

T1 sequence (Q9BZJ8 whole entry R140A): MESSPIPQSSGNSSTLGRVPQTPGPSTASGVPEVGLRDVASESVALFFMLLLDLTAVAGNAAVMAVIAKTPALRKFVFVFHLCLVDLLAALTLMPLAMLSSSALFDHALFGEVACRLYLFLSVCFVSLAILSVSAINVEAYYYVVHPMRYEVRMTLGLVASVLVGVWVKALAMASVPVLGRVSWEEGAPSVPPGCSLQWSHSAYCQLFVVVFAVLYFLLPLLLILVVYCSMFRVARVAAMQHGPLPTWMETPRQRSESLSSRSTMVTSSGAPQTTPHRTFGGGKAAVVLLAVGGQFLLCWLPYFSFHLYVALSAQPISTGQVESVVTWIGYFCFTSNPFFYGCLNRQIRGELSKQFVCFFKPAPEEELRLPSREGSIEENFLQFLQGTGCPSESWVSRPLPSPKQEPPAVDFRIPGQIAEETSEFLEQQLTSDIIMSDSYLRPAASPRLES
T2 sequence (Q9BZJ8 whole entry V288A): as the sequence (Q9BZJ8 whole entry R140A) above, with A140R, V288A counted along it
Chain of Human PED9A1 (O76083 whole entry): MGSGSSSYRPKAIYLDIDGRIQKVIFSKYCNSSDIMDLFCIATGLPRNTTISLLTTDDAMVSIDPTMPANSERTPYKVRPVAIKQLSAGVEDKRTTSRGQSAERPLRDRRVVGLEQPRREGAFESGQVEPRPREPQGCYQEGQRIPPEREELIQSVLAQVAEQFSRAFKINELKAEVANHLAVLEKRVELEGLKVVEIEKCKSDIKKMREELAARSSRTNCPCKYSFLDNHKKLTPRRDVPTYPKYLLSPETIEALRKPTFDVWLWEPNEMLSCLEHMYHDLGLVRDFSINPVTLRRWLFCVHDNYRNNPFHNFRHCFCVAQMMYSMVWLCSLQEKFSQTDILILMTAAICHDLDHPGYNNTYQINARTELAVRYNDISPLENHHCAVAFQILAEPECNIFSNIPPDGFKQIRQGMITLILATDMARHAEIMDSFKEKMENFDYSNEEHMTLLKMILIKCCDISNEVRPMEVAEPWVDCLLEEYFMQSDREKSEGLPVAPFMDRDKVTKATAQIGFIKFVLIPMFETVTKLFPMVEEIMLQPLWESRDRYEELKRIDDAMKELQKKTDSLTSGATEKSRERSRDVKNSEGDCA

For the compound `CCOc1cc(C)nc(N(CCOC)S(=O)(=O)c2ccc(NCc3c(F)cncc3F)nc2OC)n1` [Compound 1], the IC50 on human GPR61 R140A (Fig. 3e table, untagged, read-out: GPR61 cAMP IC50 (95% CI), R140A Untagged) was 7.88 µM; at Human PED9A1, over 200 µM; at human GPR61 V288A (HiBit-tagged, read-out: GPR61 cAMP IC50 (95% CI), V288A HiBit-tagged), 0.4 µM; on human GPR61 V288A (untagged, read-out: GPR61 cAMP IC50 (95% CI), V288A Untagged), 0.406 µM. The “cAMP response (Figure 3e source data)” value on human GPR61 R140A (HiBit R140A, concentration -8.5) is 4.06 and 2.30 and 2.96 and 2.25 and 3.21; at human GPR61 V288A (HiBit V288A, concentration -6) it was 0.67 and 0.63 and 0.87 and 1.10 and 0.64 and 0.60. The “sensitivity of the receptor to inverse agonism in the cAMP assay” value on human GPR61 R140A (R140A mutant vs wild-type) and on human GPR61 V288A (V288A mutant vs wild-type) was “less sensitive” in each case.
